biological target: Cathepsin D (Homo sapiens, UniProt P07339); assay: Assay 3: cathepsin D inhibition activity (non-cellular assay, chromogenic substrate); type: biochemical; design: Frozen human placental tissue was thawed and homogenized; from tissue; host or cells: human placenta; details: 4 µM test compound; inhibition of initial rate relative to control; cathepsin D from human placental tissue; read-out: % inhibition at 4µ M
Description: A third non-cellular assay for determining in vitro aspartyl protease inhibitory activity is generally described in Jupp, R.A. et al., (1990) Biochem. J., 265:871-878 and Rao et al., J. Med. Chem. (1993), in press. The assay is carried out by incubating a test compound with a suitable aspartyl protease, such as cathepsin D, in the presence of a chromogenic substrate. The inhibition constant, Ki, value may then be determined by quantifying the competitive inhibition of the hydrolysis of the chromogenic substrate. A variety of chromogenic substrates that are useful for assaying aspartyl protease activity are discussed in Dunn, et al., (1986) Biochem. J., 237:899-906. A preferred chromogenic substrate for a cathepsin D assay is disclosed in Scarborough, P.E. et al., Protein Science, (1993), 2:264-276.
Concentrations of substrate solutions and cleavage products may be verified using amino acid analysis. The enzyme preparations may be titrated with a tightly binding inhibitor to quantitate the active concentration of the enzyme. Enzyme concentrations are typically in the range of from 1-6 nM. Stock solutions of the test compound are prepared at concentrations ranging from 1.0 to 5.0 mg/mL, and then 50-100 µL portions of these stock solutions may be further diluted to a concentration in the range of 5 to 300 µM for rate determinations.
[…] Then, the test compounds are assayed over a concentration range of, for example, 5 to 300 µM for rate determinations.
A decrease in absorbance in the range of 284-324 nm may be monitored using a spectrophotometer. Absorbance readings are typically taken at various timepoints. The initial velocities are then plotted versus the initial substrate concentration. […] Estimates of Ki may then be determined using the Dixon construction. Dixon, M., (1953) Biochem J., 55:170-171.
If the ratio of the total active enzyme concentration to the estimated Ki value ([E]t/Ki) is less than 0.2, then the precise Ki value may be computed by using a non-linear curve fitting program based on the equation: v= Vmax [S]/[S] + Km (1 + [I]/Ki ) [formula] where v is the initial rate, [S] is the initial substrate concentration, [I] is the inhibitor concentration and Km and Ki are defined above. […] P.J.F., (1972) Biochem J., 127:321-333. This Assay is exemplfied in Assay 3.
The homogenate was centrifuged at 10,000 rpm for 30 minutes in a Sorvall GSA rotor. The supernatant was adjusted to pH 3.7 using 5.7N HCl and then sodium acetate was added to a concentration of 0.1M. The resultant mixture was incubated for 30 minutes at 0°C, resulting in the formation of a precipitate. This precipitate was removed by centrifugation (30 minutes, 10,000 rpm). The acidic supernatent was applied to a chromatography column (pepstatinyl agarose equilibrated with 0.1M sodium acetate, pH 3.5, 0.1% Brij 35, and 1M NaCl), washed until the OD₂₈₀ of the effluent returned to baseline, and then eluted with 50mM Tris-HCl, pH 8.6, 0.1% Brij 35, and 1M NaCl. The eluent was dialyzed against 10mM sodium phosphate, pH 7.0, 0.1% Brij 35, and 0.1M NaCl, and then applied to a 1 mL DEAE-Sephacel column equilibrated with the same buffer. Cathepsin D was recovered in the breakthrough fraction.
The enzyme mixture (125 µL buffer (0.1M sodium formate at pH 3.7), 1 µL of a 1mM solution of test compound, 4 µL of DMSO, enzyme and water to provide a total volume of 230 µL) was vortexed and prewarmed for four minutes before the addition of the chromogenic substrate. After warming, the enzyme mixture was added to 20 µL of a […] dilution of substrate solution. A control reaction mixture was similarly prepared without the addition of the test compound. The percent of inhibition of the initial rate of reaction in the presence of a particular concentration of test compound (i.e. 4 µM) may be determined for the test compound by monitoring the reaction mixture in parallel to the control reaction. […]

Cathepsin D, sequence (P07339 169-412 limits assumed): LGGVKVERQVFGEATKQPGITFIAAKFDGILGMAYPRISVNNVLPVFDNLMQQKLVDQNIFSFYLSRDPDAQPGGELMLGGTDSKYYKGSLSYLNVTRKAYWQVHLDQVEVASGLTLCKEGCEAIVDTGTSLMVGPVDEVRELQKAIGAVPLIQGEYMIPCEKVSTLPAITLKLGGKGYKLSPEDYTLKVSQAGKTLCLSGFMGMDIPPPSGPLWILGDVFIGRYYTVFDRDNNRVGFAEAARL
Cathepsin D, sequence (P07339 65-162 limits assumed): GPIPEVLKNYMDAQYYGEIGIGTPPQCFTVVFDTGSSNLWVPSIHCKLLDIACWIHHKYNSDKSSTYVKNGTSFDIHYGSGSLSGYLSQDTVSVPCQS

| inhibition at 4 µM | Compound |
| --- | --- |
| 40% | CC[C@H](C)[C@H](NC(=O)OCc1ccc2ccccc2n1)C(=O)N[C@@H](Cc1ccccc1)[C@@H]1O[C@@H]1[C@H](Cc1ccccc1)NC(=O)[C@@H](NC(=O)OCc1ccc2ccccc2n1)[C@@H](C)CC [Example 3, 1,6-Diphenyl-2(S);5(S)-di[N-[2(S)-N[(quinolin-2-ylmethoxy)carbonyl]amino-3(S)-methylpentanoyl]amino]-3,4-cis-epoxyhexane] |
| 22% | CC(C)(C)NC(=O)c1sccc1C[C@@H](O)[C@H](Cc1ccccc1)NC(=O)[C@H](CC(N)=O)NC(=O)c1ccc2ccccc2n1 [Example 14, [1S-(1R*,4R*,5S*)]-N-(1-(2-Amino-2-oxoethyl)-2-oxo-3-aza-4-phenylmethyl-5-hydroxy-6-(2-(1-t-butylamino-1-oxomethyl)thien-3-yl)hexyl)-2-quinolinyl carboxamide] |

same assay, conditions: cathepsin D from human placental tissue, chromogenic substrate, pH 3.7, 37°C

| Compound | Ki |
| --- | --- |
| CC(C)C(NC(=O)OCc1ccccc1)C(=O)NC(Cc1ccccc1)C1OC1C(Cc1ccccc1)NC(=O)C(NC(=O)OCc1ccccc1)C(C)C [Example 1, 1,6-Diphenyl-2(S);5(S)-di[N-[2(S)-N(benzyloxycarbonyl)amino-3-methyl-butanoyl]amino]-3,4-cis-epoxyhexane] | 1160 ± 260 nM |
| CC[C@H](NC(=O)OCc1ccccc1)C(=O)N[C@@H](Cc1ccccc1)[C@@H]1O[C@@H]1[C@H](Cc1ccccc1)NC(=O)[C@H](CC)NC(=O)OCc1ccccc1 [Example 2, 1,6-Diphenyl-2(S);5(S)-di[N-[2(S)-N(benzyloxycarbonyl)aminobutanoyl]amino]-3,4-cis-epoxyhexane] | 750 ± 140 nM |
| CCC(NC(=O)N(C)Cc1ccc2ccccc2n1)C(=O)NC(Cc1ccccc1)C1OC1C(Cc1ccccc1)NC(=O)C(CC)NC(=O)N(C)Cc1ccc2ccccc2n1 [Example 4, 1,6-Diphenyl-2(S);5(S)-di[N-[2(S)-N-[[N(methyl)-N(quinolin-2-ylmethyl)amino]carbonyl]aminobutanoyl]amino]-3,4-cis-epoxyhexane] | 6200 nM |
| CCC(C)C(NC(=O)N(C)Cc1ccc2ccccc2n1)C(=O)NC(Cc1ccccc1)C1OC1C(Cc1ccccc1)NC(=O)C(NC(=O)N(C)Cc1ccc2ccccc2n1)C(C)CC [Example 5, 1,6-Diphenyl-2(S);5(S)-di[N-[2(S)-N[[N(methyl)-N(quinolin-2-ylmethyl)amino]carbonyl]amino-3(S)-methylpentanoyl]amino]-3,4-cis-epoxyhexane] | 240 nM |
| Cc1cc(C(=O)N[C@@H](CC(N)=O)C(=O)N[C@@H](Cc2ccccc2)[C@H](O)Cc2ccccc2C(=O)NC(C)(C)C)nc2ccccc12 [Example 10, [1S-(1R*,4R*,5S*)]-N-(1-(2-Amino-2-oxoethyl)-2-oxo-3-aza-4-phenylmethyl-5-hydroxy-6-(2-(1-t-butylamino-1-oxomethyl)phenyl)hexyl)-4-methylquinolin-2-yl carboxamide] | 5510 nM |

Next, values leading:

| Ki | Compound |
| --- | --- |
| 1800 ± 260 nM | CC(C)(C)NC(=O)c1ccccc1CC(O)C(Cc1ccccc1)NC(=O)C(CC(N)=O)NC(=O)c1ccc2ccccc2n1 (stereo not drawn) [Example 6, [1S-(1R*,4R*,5S*)]-N-[1-(2-amino-2-oxoethyl)-2-oxo-3-aza-4-phenylmethyl-5-hydroxy-6-(2-(1-t-butylamino-1-oxomethyl)phenyl)hexyl]-2-quinolinyl carboxamide] |
| 420 ± 60 nM | Cc1ccc(CC(O)C(Cc2ccccc2)NC(=O)C(CC(N)=O)NC(=O)c2ccc3ccccc3n2)c(C(=O)NC(C)(C)C)c1 (stereo not drawn) [Example 7, [1S-(1R*,4R*,5S*)]-N-[1-(2-Amino-2-oxoethyl)-2-oxo-3-aza-4-phenylmethyl-5-hydroxy-6-(2-(1-t-butylamino-1-oxomethyl)-4-methylphenyl)hexyl]-2-quinolinyl carboxamide] |
| 1170 nM | Cc1ccc2ccc(C(=O)N[C@@H](CC(N)=O)C(=O)N[C@@H](Cc3ccccc3)[C@H](O)Cc3ccccc3C(=O)NC(C)(C)C)nc2c1 [Example 8, [lS-(1R*,4R*,5S*)]-N-(1-(2-amino-2-oxoethyl)-2-oxo-3-aza-4-phenylmethyl-5-hydroxy-6-(2-(1-t-butylamino-1-oxomethyl)phenyl)hexyl)-7-methylquinolin-2-yl carboxamide] |
